In patent US5580542A, “Method of testing for nephritis” (Kureha Kagaku Kogyo K.K., priority 1993, dated 1996):
Where “and” joins values, the source holds several entries; their conditions need not be identical. Identical values can stand only once. Blank lines part the entries; values can stand above or below the compound they belong to.

Columns and labels:
H9c2(2-1) = assay: Test 1: acetyltransferase activity, conversion of p-aminobenzoic acid to p-acetamidobenzoic acid in culture (GC-MS); assay type: cell-based, rat; details: H9c2(2-1) (cardiorhabdium); culture medium after 2 to 3 days
Method: (§1) In this test, the activity of acetyltransferase was evaluated by an in-vitro experiment with respect to p-aminobenzoic acid.
(§2) The left and right kidneys of 7 weeks-old Sprague-Dawley female rats were excised. After the renal cortices were shredded, mesangial cells were prepared by the Sieving's method. For the sake of comparison, "A7r5" (trade name, derived from fetal thoracic aortic smooth muscle), "Clone 9" (trade name. derived from liver), "H9 c2 (2-1)" (trade name, derived from cardiorhabdium), "IEC-18" (trade name, derived from the small intestine) and "NRK-52E" (trade name, derived from epithelial cells of renal tubule), all products of Flow Corp., U.S.A., were used as cells derived from rats.
(§3) Using as a culture medium "RPMI-1640" (trade name; product of Flow Corp.; U.S.A.) added with fetal bovine serum (product of GIBCO Corp.) whose concentration was finally 10% in the medium, those cells were cultured in a 5% CO2 incubator. Since the p-amionbenzoic acid contained in RPMI-1640 was converted to p-acetamidobenzoic acid by the above culture, detection was conducted with respect to the p-acetamidobenzoic acid so converted.
(§4) Namely, 2 ml of each culture medium after the lapse of 2 to 3 days since its culture were subjected to centrifugal ultrafiltration to eliminate proteins. One ml of the filtrate was added with 30 μl of 1N hydrochloric acid to adjust the pH to pH 1. Added next were 10 μg of p-pentylbenzoic acid, as an internal standard, and 0.5 g NaCl. The resulting mixture was shaken three times together with 3 ml portions of ethyl acetate to conduct liquid/liquid extraction of the organic acid component. After the extract was dried under a nitrogen gas stream, 40 μl of N,O-bis(trimethylsilyl)trifluoroacetamide and 10 μl of trimethylchlorosilane were added. The resulting mixture was stirred at 60° C. for 1 hour so that the organic acid component was trimethylsilylated. The trimethylsilylated organic acid component was then detected by gas chromatography mass spectrometry. The activity of acetyltransferase was evaluated by the relative height of a peak corresponding to p-acetamidobenzoic acid. The following evaluation standard was employed:-: smaller than 50,000,+: 50,000 or greater but smaller than 500,000, ++: 500,000 or greater, all in terms of abundance.

Clone 9 = assay: as above; assay type: cell-based, rat; details: Clone 9 (liver); culture medium after 2 to 3 days
Method: as §1, §2, §3, §4

Mesangial cells = assay: as above; assay type: cell-based, rat
Method: as §1, §2, §3, §4

NRK-52E = assay: as above; assay type: cell-based, rat; details: NRK-52E (epithelial cells of renal tubule); culture medium after 2 to 3 days
Method: as §1, §2, §3, §4

A7r5 = assay: as above; assay type: cell-based, rat; details: A7r5 (fetal thoracic aortic smooth muscle); culture medium after 2 to 3 days
Method: as §1, §2, §3, §4

IEC-18 = assay: as above; assay type: cell-based, rat; details: IEC-18 (small intestine); culture medium after 2 to 3 days
Method: as §1, §2, §3, §4

[1] = Test 4: concentrations of PAH and AcPAH in blood after Na-PAH; assay type: in vivo, Sprague-Dawley male rats; details: 40 mg Na-PAH single shot jugular vein; serum at 30, 60, 90, 120 minutes
Method: In the test, the rate of secretion of an acetyltransferase activity measuring agent according to this invention into urine was tested.
An aqueous solution of 40 mg of sodium p-aminohippurate (Na-PAH) in 200 μl of distilled water was administered as a single shot to the jugular vein of each rat under anesthesia with ethyl ether. Upon elapsed time of 30 minutes, 60 minutes, 90 minutes and 120 minutes, the concentrations of PAH and AcPAH in blood were measured by high-performance liquid chromatography. Serum was used in an amount of 50 μl each time. The pretreatment method and analysis conditions were the same as in Test 2.

[2] = Test 3: time-dependent stability of urinal AcPAH/PAH ratio after Na-PAH; assay type: in vivo, Sprague-Dawley male rats; details: 40 mg Na-PAH single shot jugular vein, 24 h urine, test repeated 7 times on different days
Method: In this test, an investigation was conducted about the time-dependent stability of test results which were obtained using an acetyltransferase activity measuring agent according to the present invention.
An aqueous solution of 40 mg of sodium p-aminohippurate (Na-PAH) in 200 μl of distilled water was administered as a single shot to the jugular vein of each rat under anesthesia with ethyl ether. The rat was then immediately placed in metabolism test cage, and urine was collected over 24 hours. The concentrations of AcPAH and PAH in urine were analyzed as in Test 2, whereby the AcPAH/PAH ratio was determined. The above test was repeated 7 times on different days so that its average value, standard deviation (S.D.) and coefficient of variations (C.V.) were determined.

[3] = Test 2: urinal AcPAH/PAH ratio after Na-PAH in renal arterial ligature rats; assay type: in vivo, Sprague-Dawley male rats; details: 40 mg Na-PAH single shot jugular vein, 24 h urine; for urinal AcPAH/PAH ratio, individual rats: day 37 after operation
Method: In this test, an investigation was conducted about the relationship, if any, between the degree of ligature of the renal artery, which serves as an index for the degree of progress of the pathema of a kidney disease, and the concentration ratio of p-acetyl-aminohippuric acid (AcPAH) to p-aminohippuric acid (PAH) in urine.
Depending on whether the renal arterial carina ligating method was applied and if so, how tight the ligating method as applied, the rats were divided into three groups, each consisting of three of the rats, that is, a sham-operation group (i.e., control), a 1/2 renal arterial ligature group (only one kidney was functioning) and a 5/6 renal arterial ligature group. On the 37th day after the operation, an aqueous solution of 40 mg of sodium p-aminohippurate (Na-PAH) in 200 μl of distilled water was administered as a single shot to the jugular vein of each rat under anesthesia with ethyl ether. The rat was then immediately placed in metabolism test cage, and urine was collected over 24 hours. The concentrations of AcPAH and PAH in urine were analyzed by high-performanceliquid chromatography in a manner to be described subsequently herein, whereby the ratio of AcPAH to PAH (AcPAH/PAH) was determined.
Namely, 150 μl of methanol, which contained 1 μg of vanillic acid as an internal standard substance, were added to 50 μl of fivefold dilute urine. After the resulting mixture was stirred and centrifuged, the supernatant was collected and was subjected to filtration by centrifugation. By high-performance liquid chromatography, 10 μl of the supernant so obtained were quantitatively analyzed under the following analysis conditions:
Column: "Unisil Pack 250B" (trade name, product of GL Science Inc.)
Mobile phase: water/acetic acid/acetonitrile=93.5/0.5/6 (pH 3, approximately)
Column oven temperature: 40° C.

[4] = 1/2 Renal arterial ligature group (n = 3)
[5] = 5/6 Renal arterial ligature group (n = 3)

SMILES: Nc1ccc(C(=O)O)cc1 [p-aminobenzoic acid]
- Evaluation results: activity of acetyltransferase by relative height of peak corresponding to p-acetamidobenzoic acid (H9c2(2-1)): - (smaller than 50,000)
- Evaluation results: activity of acetyltransferase by relative height of peak corresponding to p-acetamidobenzoic acid (Clone 9): - (smaller than 50,000)
- N-acetyltransferase activity to p-aminobenzoic acid (in words) (Mesangial cells; Mesangial cells): confirmed to have N-acetyltransferase activity
- Evaluation results: activity of acetyltransferase by relative height of peak corresponding to p-acetamidobenzoic acid (Mesangial cells; Mesangial cells from rat renal cortex, culture medium after 2 to 3 days): ++ (500,000 or greater)
- Evaluation results: activity of acetyltransferase by relative height of peak corresponding to p-acetamidobenzoic acid (NRK-52E): - (smaller than 50,000)
- Evaluation results: activity of acetyltransferase by relative height of peak corresponding to p-acetamidobenzoic acid (A7r5): - (smaller than 50,000)
- Evaluation results: activity of acetyltransferase by relative height of peak corresponding to p-acetamidobenzoic acid (IEC-18): - (smaller than 50,000)

SMILES: Nc1ccc(C(=O)NCC(=O)O)cc1 [PAH, p-aminohippuric acid]
- elimination of PAH from blood (concentration in blood versus time, FIG. 1) [1]: substantially eliminated from blood in 120 minutes after the administration

SMILES: CC(=O)Nc1ccc(C(=O)NCC(=O)O)cc1 [AcPAH, p-acetyl-aminohippuric acid]
- concentration of metabolite AcPAH in blood versus time (FIG. 2) [1]: becomes low in concentration in 120 minutes after the administration

- Urinal AcPAH/PAH, Ave. ([2]; Rat #1): 0.125
- Urinal AcPAH/PAH, Ave. ([2]; Rat #2): 0.100
- Urinal AcPAH/PAH, Ave. ([2]; Rat #3): 0.131
- urinal AcPAH/PAH ratio, Ave. [3, 4]: 0.146
- urinal AcPAH/PAH ratio, individual rats [3, 4]: 0.144 and 0.153 and 0.141
- urinal AcPAH/PAH ratio, Ave. [3, 5]: 0.250
- urinal AcPAH/PAH ratio, individual rats [3, 5]: 0.236 and 0.242 and 0.272
- urinal AcPAH/PAH ratio, Ave. ([3]; Sham-operation group (n = 3)): 0.125
- urinal AcPAH/PAH ratio, individual rats ([3]; Sham-operation group (n = 3)): 0.132 and 0.121 and 0.123
SMILES: Nc1ccc(C(=O)NCC(=O)[O-])cc1.[Na+]
